Source: patent publication US20240391940A1, “FUSED RING-CONTAINING COMPOUND, APPLICATION THEREOF, AND COMPOSITION CONTAINING SAME” (GenEros Biopharma Ltd., priority 2020, published 2024)

Test system: IMQ-induced psoriasis mouse model
Assay: IMQ-induced psoriasis mouse model (PASI scoring)
Format: in vivo, Balb/c mice
Settings: IMQ-induced psoriasis mice; GEN1-284s 30 mg/kg PO qD
Method: Method: This experiment used a total of 19 mice. A natural skin observation control (n=1). 2 cm^2 of hair was shaved off the backs of […] on day 0, the stubble was removed with a mild depilatory cream, and the original skin was photographed. 62.5 mg of IMQ was applied to each of the mice. There was a mock group (n=6), a DEX (3 mg/kg, PO., qD) group (n=6), and a GEN1-284s (30 mg/kg, PO, qD) group (n=6). On the day of modeling, administration was performed in a volume of 100 μL/20 g body weight 4 h after IMQ application. The PASI scoring method was used to score the erythema, swelling and scaling on the skin of the mice. The experiment took a total of 6 days. The first day was set to day 0. IMQ application and administration were not performed on day 5. The mice were sacrificed with carbon dioxide at the end of the experiment.
The test animals were anesthetized with isoflurane. 2 cm^2 of hair was shaved off the backs of the mice, and the stubble was removed with a depilatory cream. IMQ application was performed for a total of 5 days, from day 0 to day 4. Scoring and IMQ application were performed every morning. Administration was performed in the afternoon
Desquamation (D): means epidermal cells flake off. The severity scores of skin lesions were as follows: • 0=none; this sign cannot be confirmed by careful observation • 1=mild; this sign can be confirmed but careful observation is required • 2=moderate; this sign is more visible and can be confirmed immediately • 3=severe; this sign is marked. • 4=very severe; this sign is very marked.
Induration I: 0—skin lesions are at the same level as normal skin; • 1—skin lesions are at slightly higher levels than normal skin surface; • 2—lesions moderately stick out and have round or slope-shaped borders; • 3—skin lesions are thick and markedly stick out; • 4—skin lesions are very thick and very markedly stick out.
Erythema E: • 0—no visible erythema; • 1—light red; • 2—red; • 3—dark red; • 4—the red is very dark

O=C(Cc1ccc2ncccc2c1)N1CCC(n2c(=O)n(COP(=O)([O-])[O-])c3cccc(C(F)(F)F)c32)CC1.[Na+].[Na+] [GEN1-284 salt, (2-Oxo-3-(1-(2-(quinolin-6-yl)acetyl)piperidin-4-yl)-4-(trifluoromethyl)-2,3-dihydro-1H-benzo[d]imidazol-1-yl)methyl disodium phosphate]
Swelling of the skin: partially ameliorate the psoriatic swelling
